Data as given in patent publication US9227921B2, “Salts and polymorphs of a tetracycline compound” (Paratek Pharmaceuticals, Inc., priority 2008, dated 2016).

Key:
Type in all cases: physicochemical
[1] = Relative stabilities of the polymorphic forms (maturation / slurry, XRPD)
Experimental: The relative stabilities of the polymorphic forms of Compound 1 were analyzed. For example, form 1 tosylate salt was subjected to a maturation experiment for 24 hours in either IPA or methyl pentanone, seeded with either form 2 or form 3 tosylate salt. […] A slurry of a 50:50 mixture of form 1 and form 3 were analyzed in IPA for 18 hours at 0° C., 25° C., 40° C., and 60° C., as shown in FIG. 7.

[2] = Stability studies on free base Compound 1 and amorphous diHCl salt; details: 40° C.
Experimental: Stability studies were performed on the free base Compound 1 and an amorphous diHCl salt of Compound 1. This salt was formed by dissolving the compound in aqueous solution, adjusting the pH of the solution to approximately 4.2, followed by lyophilization. The free base degraded in less than one month at 40° C., and approximately three months at 4° C. In contrast, the diHCl salt of Compound 1 was stable for 6 months at 40° C., and for two years at room temperature (25° C.).

[3] = Temperature and moisture stability study (HPLC impurity profile)
Experimental: A stability study was conducted on tosylate salt and mesylate salt of Compound 1, by monitoring changes in the high performance liquid chromatography (HPLC) impurity profiles for each salt when exposed to various temperatures and/or humidity conditions. Each sample was placed in a closed container and exposed to three controlled environments: refrigerated (5° C.), 20° C. and 60% relative humidity, and 40° C. and 75% relative humidity. […] The stability study of the crystalline tosylate salt was continued.
Samples were analyzed by the following reversed-phase HPLC impurity profile method at time points 0, 1, 2, 4 weeks (Table 7) and 3 months (Table 8) for the tosylate salt; and 0, 1 and 2 weeks for the mesylate salt (Table 9).
Reversed-phase HPLC analysis was conducted using a SYMMETRY SHIELD RP18 column (4.6×250 mm, 5 µm particle size), although analysis using a similar or equivalent column would be expected to yield similar results. The mobile phase components were 0.01 M ammonium acetate in water at pH 3.3 (A) and acetonitrile (B). The mobile phase composition was a gradient that increased from 6% to 15% B in five minutes, held at 15% B for 15 minutes, increased from 15% to 60% B in ten minutes, then from 60% to 90% B in two minutes, and then the system was re-equilibrated at 6% B for four minutes. The flow rate was 1.0 mL/minute, and the injection volume was 10.0 μL. The column temperature was maintained at 30° C. Detection was by ultraviolet light (UV) at 280 nm. The retention time for Compound 1 was approximately 15.7 minutes. The sample solution was prepared in mobile phase A to a final concentration of 2.0 mg/mL.

Structure (SMILES): CN(C)c1cc(CNCC(C)(C)C)c(O)c2c1CC1CC3C(N(C)C)C(O)=C(C(N)=O)C(=O)C3(O)C(O)=C1C2=O.Cc1ccc(S(=O)(=O)O)cc1 (stereo not drawn) [form 1 tosylate salt]
- change of polymorphic form in slurry ([1]; 50:50 mixture of form 1 and form 3 in IPA, 18 hours at 0° C., 25° C., 40° C., 60° C.): no change of form 1 into form 3
- change of polymorphic form on maturation ([1]; 24 hours in IPA or methyl pentanone, seeded with form 2 or form 3 tosylate salt): no change of form 1 into form 2 or 3

Structure (SMILES): CN(C)c1cc(CNCC(C)(C)C)c(O)c2c1CC1CC3C(N(C)C)C(O)=C(C(N)=O)C(=O)C3(O)C(O)=C1C2=O.Cl.Cl (stereo not drawn) [diHCl salt of Compound 1]
- time for which the substance was stable [2]: 6 months

Structure (SMILES): CN(C)c1cc(CNCC(C)(C)C)c(O)c2c1CC1CC3C(N(C)C)C(O)=C(C(N)=O)C(=O)C3(O)C(O)=C1C2=O.CS(=O)(=O)O (stereo not drawn) [mesylate salt of Compound 1]
- Compound 1 ([3]; 1 week, 5° C.): 98.2%
- RRT 1.19 ([3]; 1 week, 5° C.): 0.17%
- RRT 1.26 (beta-epimer) ([3]; 1 week, 5° C.): 1.6%
- RRT 1.77 ([3]; 1 week, 5° C.): 0.08%
- Total Impurities ([3]; 1 week, 5° C.): 1.85%
- Compound 1 ([3]; 1 week, 20° C. & 60% RH): 98.0%
- RRT 1.19 ([3]; 1 week, 20° C. & 60% RH): 0.17%
- RRT 1.26 (beta-epimer) ([3]; 1 week, 20° C. & 60% RH): 1.8%
- RRT 1.77 ([3]; 1 week, 20° C. & 60% RH): 0.09%
- Total Impurities ([3]; 1 week, 20° C. & 60% RH): 2.06%
- Compound 1 ([3]; 1 week, 40° C. & 75% RH): 97.1%
- RRT 0.52 ([3]; 1 week, 40° C. & 75% RH): 0.07%
- RRT 0.77 ([3]; 1 week, 40° C. & 75% RH): 0.05%
- RRT 1.19 ([3]; 1 week, 40° C. & 75% RH): 0.16%
- RRT 1.26 (beta-epimer) ([3]; 1 week, 40° C. & 75% RH): 2.6%
- RRT 1.77 ([3]; 1 week, 40° C. & 75% RH): 0.09%
- Total Impurities ([3]; 1 week, 40° C. & 75% RH): 2.97%
- Compound 1 ([3]; 2 weeks, 5° C.): 98.3%
- RRT 0.93 ([3]; 2 weeks, 5° C.): 0.06%
- RRT 1.19 ([3]; 2 weeks, 5° C.): 0.20%
- RRT 1.26 (beta-epimer) ([3]; 2 weeks, 5° C.): 1.3%
- RRT 1.77 ([3]; 2 weeks, 5° C.): 0.09%
- Total Impurities ([3]; 2 weeks, 5° C.): 1.65%
- Compound 1 ([3]; 2 weeks, 20° C. & 60% RH): 98.1%
- RRT 0.93 ([3]; 2 weeks, 20° C. & 60% RH): 0.06%
- RRT 1.19 ([3]; 2 weeks, 20° C. & 60% RH): 0.20%
- RRT 1.26 (beta-epimer) ([3]; 2 weeks, 20° C. & 60% RH): 0.11%
- RRT 1.77 ([3]; 2 weeks, 20° C. & 60% RH): 0.11%
- Total Impurities ([3]; 2 weeks, 20° C. & 60% RH): 1.87%
- Compound 1 ([3]; 2 weeks, 40° C. & 75% RH): 96.6%
- RRT 0.52 ([3]; 2 weeks, 40° C. & 75% RH): 0.05%
- RRT 0.77 ([3]; 2 weeks, 40° C. & 75% RH): 0.07%
- RRT 0.93 ([3]; 2 weeks, 40° C. & 75% RH): 0.06%
- RRT 1.19 ([3]; 2 weeks, 40° C. & 75% RH): 0.19%
- RRT 1.26 (beta-epimer) ([3]; 2 weeks, 40° C. & 75% RH): 0.11%
- RRT 1.77 ([3]; 2 weeks, 40° C. & 75% RH): 0.11%
- Total Impurities ([3]; 2 weeks, 40° C. & 75% RH): 3.38%
- stability ([3]; 5° C.): unstable
- Compound 1 ([3]; Initial): 98.3%
- RRT 1.19 ([3]; Initial): 0.20%
- RRT 1.26 (beta-epimer) ([3]; Initial): 1.5%
- Total Impurities ([3]; Initial): 1.70%
